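Tested at 5 concentrations; 48 h exposure; 96-well plates; endpoints linearly interpolated, else capped at highest concentration. Here, GI50 denotes the concentration required for 50% inhibition of growth.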 Active and inactive are the calls of the source. Rule as the data show it: active = GI50 up to about 1.1 µM and inactive = higher.
Key:
Assay in all cases: NCI tumour cell line growth inhibition, 48 h
HL-60 = tested on: HL-60
U-251 = tested on: U-251
NCI-H460 = tested on: NCI-H460
SK-MEL-2 = tested on: SK-MEL-2
HCT-15 = tested on: HCT-15
HOP-62 = tested on: HOP-62
LOX IMVI = tested on: LOX IMVI
A498 = tested on: A498
RPMI-8226 = tested on: RPMI-8226
SK-OV-3 = tested on: SK-OV-3
UO-31 = tested on: UO-31
UACC-257 = tested on: UACC-257
K562 = tested on: K562
UACC-62 = tested on: UACC-62
OVCAR-8 = tested on: OVCAR-8
HCT-116 = tested on: HCT-116
SF-539 = tested on: SF-539
OVCAR-4 = tested on: OVCAR-4
COLO 205 = tested on: COLO 205
SK-MEL-5 = tested on: SK-MEL-5
Malme-3M = tested on: Malme-3M
NCI-H226 = tested on: NCI-H226
SNB-78 = tested on: SNB-78
KM12 = tested on: KM12
A549 = tested on: A549
HT-29 = tested on: HT-29
HCC 2998 = tested on: HCC 2998
EKVX = tested on: EKVX
IGROV-1 = tested on: IGROV-1
NCI-H23 = tested on: NCI-H23
OVCAR-5 = tested on: OVCAR-5
CCRF-CEM = tested on: CCRF-CEM
MCF7 = tested on: MCF7
KM-20L2 = tested on: KM-20L2
SN12C = tested on: SN12C
DMS-114 = tested on: DMS-114
CAKI-1 = tested on: CAKI-1
M19-MEL = tested on: M19-MEL
RXF 393 = tested on: RXF 393
OVCAR-3 = tested on: OVCAR-3
HOP-18 = tested on: HOP-18
SNB-75 = tested on: SNB-75
NCI/ADR-RES = tested on: NCI/ADR-RES
SF-268 = tested on: SF-268
MOLT-4 = tested on: MOLT-4
DMS-273 = tested on: DMS-273
SK-MEL-28 = tested on: SK-MEL-28
NCI-H522 = tested on: NCI-H522
SW-620 = tested on: SW-620
HOP-92 = tested on: HOP-92
SF-295 = tested on: SF-295
SNB-19 = tested on: SNB-19
DLD-1 = tested on: DLD-1
786-0 = tested on: 786-0
TK-10 = tested on: TK-10
LXFL 529 = tested on: LXFL 529
ACHN = tested on: ACHN
SR = tested on: SR
M14 = tested on: M14

Q: What does the source list for `COc1cccc(-c2nc3c(C(=O)NCCN(C)C)cccc3[nH]2)c1`?
A: GI50 (HL-60): 15.7 µM (inactive); GI50 (U-251): 23.8 µM (inactive); GI50 (NCI-H460): 11.1 µM (inactive); GI50 (SK-MEL-2): 18.8 µM (inactive); GI50 (HCT-15): 18.9 µM; GI50 (HOP-62): 15.1 µM (inactive); GI50 (LOX IMVI): 13.3 µM (inactive); GI50 (A498): 16.3 µM (inactive); GI50 (RPMI-8226): 13.2 µM (inactive); GI50 (SK-OV-3): 21.3 µM (inactive); GI50 (UO-31): 11.2 µM (inactive); GI50 (UACC-257): 16.1 µM (inactive); GI50 (K562): 15.1 µM (inactive); GI50 (UACC-62): 16.7 µM (inactive); GI50 (OVCAR-8): 15.7 µM (inactive); GI50 (HCT-116): 7.73 µM (inactive); GI50 (SF-539): 17.1 µM (inactive); GI50 (OVCAR-4): 26.3 µM (inactive); GI50 (COLO 205): 10 µM (inactive); GI50 (SK-MEL-5): 16.7 µM (inactive); GI50 (Malme-3M): 14 µM (inactive); GI50 (NCI-H226): 14 µM (inactive); GI50 (SNB-78): 40.4 µM (inactive); GI50 (KM12): 20.8 µM (inactive); GI50 (A549): 18.5 µM (inactive); GI50 (HT-29): 11 µM (inactive); GI50 (HCC 2998): 15.6 µM (inactive); GI50 (EKVX): 34.4 µM (inactive); GI50 (IGROV-1): 21.4 µM (inactive); GI50 (NCI-H23): 19.2 µM (inactive); GI50 (OVCAR-5): 19.1 µM (inactive); GI50 (CCRF-CEM): 8.05 µM (inactive); GI50 (MCF7): 21.8 µM (inactive); GI50 (KM-20L2): 14.4 µM (inactive); GI50 (SN12C): 17.4 µM (inactive); GI50 (DMS-114): 15.3 µM (inactive); GI50 (CAKI-1): 16 µM (inactive); GI50 (M19-MEL): 16.3 µM (inactive); GI50 (RXF 393): 20.7 µM (inactive); GI50 (OVCAR-3): 22.7 µM (inactive); GI50 (HOP-18): 18.4 µM (inactive); GI50 (SNB-75): 21.3 µM (inactive); GI50 (NCI/ADR-RES): 18 µM (inactive); GI50 (SF-268): 13.2 µM (inactive); GI50 (MOLT-4): 3.38 µM (inactive); GI50 (DMS-273): 11.3 µM (inactive); GI50 (SK-MEL-28): 15.8 µM (inactive); GI50 (NCI-H522): 15.2 µM (inactive); GI50 (SW-620): 12.7 µM (inactive); GI50 (HOP-92): 18.5 µM (inactive); GI50 (SF-295): 16.2 µM (inactive); GI50 (SNB-19): 31.3 µM (inactive); GI50 (DLD-1): 18.5 µM (inactive)

Q: `Clc1ccc(CCn2cncn2)cc1` was tested. Which GI50 (HL-60) did it give?
A: Its GI50 is > 100 µM (inactive).

Q: And the GI50 (U-251)?
A: Its GI50 is > 100 µM (inactive).

Q: What about the GI50 (NCI-H460) of the same compound?
A: Its GI50 is > 100 µM (inactive).

Q: What about the GI50 (SK-MEL-2) of the same compound?
A: Its GI50 is > 100 µM (inactive).

Q: What about the GI50 (HCT-15) of the same compound?
A: Its GI50 is over 100 µM.

Q: And the GI50 (HOP-62)?
A: Its GI50 is > 100 µM (inactive).

Q: And the GI50 (LOX IMVI)?
A: Its GI50 is > 100 µM (inactive).

Q: What about the GI50 (A498) of the same compound?
A: The GI50 was > 100 µM (inactive).

Q: What about the GI50 (RPMI-8226) of the same compound?
A: Its GI50 is > 100 µM (inactive).

Q: And the GI50 (SK-OV-3)?
A: The GI50 was > 100 µM (inactive).

Q: What about the GI50 (786-0) of the same compound?
A: Its GI50 is > 100 µM (inactive).

Q: What about the GI50 (TK-10) of the same compound?
A: Its GI50 is > 100 µM (inactive).

Q: And the GI50 (UO-31)?
A: Its GI50 is > 100 µM (inactive).

Q: And the GI50 (UACC-257)?
A: The GI50 was > 100 µM (inactive).

Q: What about the GI50 (K562) of the same compound?
A: The GI50 was > 100 µM (inactive).

Q: What about the GI50 (UACC-62) of the same compound?
A: The GI50 was > 100 µM (inactive).

Q: And the GI50 (OVCAR-8)?
A: Its GI50 is > 100 µM (inactive).

Q: What about the GI50 (HCT-116) of the same compound?
A: Its GI50 is > 100 µM (inactive).

Q: And the GI50 (SF-539)?
A: The GI50 was > 100 µM (inactive).

Q: What about the GI50 (OVCAR-4) of the same compound?
A: The GI50 was > 100 µM (inactive).

Q: What about the GI50 (COLO 205) of the same compound?
A: Its GI50 is > 100 µM (inactive).

Q: What about the GI50 (SK-MEL-5) of the same compound?
A: The GI50 was > 100 µM (inactive).

Q: What about the GI50 (Malme-3M) of the same compound?
A: Its GI50 is > 100 µM (inactive).

Q: And the GI50 (NCI-H226)?
A: Its GI50 is > 100 µM (inactive).

Q: What about the GI50 (LXFL 529) of the same compound?
A: Its GI50 is > 100 µM (inactive).

Q: What about the GI50 (SNB-78) of the same compound?
A: Its GI50 is > 100 µM (inactive).

Q: What about the GI50 (KM12) of the same compound?
A: The GI50 was > 100 µM (inactive).

Q: What about the GI50 (A549) of the same compound?
A: The GI50 was > 100 µM (inactive).

Q: What about the GI50 (HT-29) of the same compound?
A: The GI50 was > 100 µM (inactive).

Q: And the GI50 (IGROV-1)?
A: The GI50 was > 100 µM (inactive).

Q: And the GI50 (NCI-H23)?
A: The GI50 was > 100 µM (inactive).

Q: What about the GI50 (OVCAR-5) of the same compound?
A: Its GI50 is > 100 µM (inactive).

Q: What about the GI50 (CCRF-CEM) of the same compound?
A: Its GI50 is > 100 µM (inactive).

Q: What about the GI50 (KM-20L2) of the same compound?
A: Its GI50 is > 100 µM (inactive).

Q: And the GI50 (SN12C)?
A: The GI50 was > 100 µM (inactive).

Q: And the GI50 (DMS-114)?
A: Its GI50 is > 100 µM (inactive).

Q: And the GI50 (CAKI-1)?
A: Its GI50 is > 100 µM (inactive).

Q: And the GI50 (M19-MEL)?
A: The GI50 was > 100 µM (inactive).

Q: What about the GI50 (RXF 393) of the same compound?
A: Its GI50 is > 100 µM (inactive).

Q: What about the GI50 (ACHN) of the same compound?
A: The GI50 was > 100 µM (inactive).

Q: What about the GI50 (OVCAR-3) of the same compound?
A: Its GI50 is > 100 µM (inactive).

Q: What about the GI50 (HOP-18) of the same compound?
A: Its GI50 is > 100 µM (inactive).

Q: And the GI50 (SNB-75)?
A: The GI50 was 86.3 µM (inactive).

Q: What about the GI50 (SR) of the same compound?
A: The GI50 was > 100 µM (inactive).

Q: And the GI50 (SF-268)?
A: The GI50 was > 100 µM (inactive).

Q: And the GI50 (MOLT-4)?
A: Its GI50 is > 100 µM (inactive).

Q: What about the GI50 (DMS-273) of the same compound?
A: The GI50 was > 100 µM (inactive).

Q: What about the GI50 (SK-MEL-28) of the same compound?
A: Its GI50 is > 100 µM (inactive).

Q: What about the GI50 (M14) of the same compound?
A: Its GI50 is > 100 µM (inactive).

Q: And the GI50 (NCI-H522)?
A: Its GI50 is > 100 µM (inactive).

Q: What about the GI50 (SW-620) of the same compound?
A: Its GI50 is > 100 µM (inactive).

Q: And the GI50 (HOP-92)?
A: Its GI50 is > 100 µM (inactive).

Q: What about the GI50 (SF-295) of the same compound?
A: Its GI50 is > 100 µM (inactive).

Q: What about the GI50 (DLD-1) of the same compound?
A: The GI50 was > 100 µM (inactive).

Reference: ChEMBL document CHEMBL1201862, “PubChem BioAssay data set” (2004)
